Results: US6645954B2, “Compositions comprising ethisterone or its derivatives” (Multimed Limited, priority 1998, dated 2003)
“And” between values parts separate entries of the source, which are not always exact repeats. Identical values can stand only once.

Key:
[1] = Andropause CheckList score (ACL) and clinical symptom response in hypogonadal men; assay type: in vivo, human; settings: for clinical response / symptoms: Example 2, person, pre-treatment ACL 25, successive treatments
Protocol: ACL—Andropause CheckList Score—A questionnaire rating the incidence and severity of symptoms of the andropause. The greater the checklist score, the more severe are the symptoms.
These consecutive referrals were evaluated at interview by administering a questionnaire, the “Andropause Check List” which rated each symptom on a five point rating scale as being absent (0), slight (1), moderate (2), severe (3) or total (4). It also included questions on the monthly frequency of intercourse and masturbation. A detailed history was taken focussing especially on factors which might affect testicular function and this was entered onto a computerised database (Microsoft Access).
(§1) During treatment, the severity of symptoms and level of sexual activity on the Andropause Check List score was reassessed at three monthly intervals, as well as weight, blood pressure, resting pulse rate, full endocrine, biochemical and haematological profiles, and in some cases ultrasound studies of the prostate and testes. In all cases, subjects were used as their own controls in the comparison of the effects of treatment. All results were stored in a specially designed Microsoft Access database, and […] analyes were carried out using the SPSS version 9 programme.

Total Testosterone [2] = experiment: Total Testosterone (TT) in fasting blood; assay type: in vivo, human
From the text: TT—Total Testosterone in nmol/l (NR 13-35)
(§2) Fasting blood samples were taken between 9 and 12 am to minimize the effects of diurnal variation, and analyses included the standard full biochemical, lipid and haematology profiles, prostate specific antigen and routine urine analysis. The endocrine assessment included follicle stimulating hormone (FSH) and luteinizing hormone (LH) prolactin, total testosterone (TT), dihydrotestosterone (DHT), sex hormone binding globulin (SHBG), oestradiol (E2) cortisol and either total thyroxine or TSH.

[3] = test system: Sex Hormone Binding Globulin; experiment: Sex Hormone Binding Globulin (SHBG) in fasting blood; assay type: in vivo, human; settings: for Sex Hormone Binding Globulin: Clinical trial, FIG. 4, started above the normal range (20-45 nmol/l) in Danazol groups
From the text: SHBG—Sex Hormone Binding Globulin in nmol/l (NR 20-45)
as §2

Free Androgen Index = Free Androgen Index (FAI = TT/SHBG x 100); assay type: in vivo, human
From the text: It has been found (Carruthers, M. ‘The Male Menopause, Harpercollins’, London, 1996) that the symptoms associated with this condition arise due to an absolute or relative insufficiency of testosterone, particularly the latter, caused by a reduction in the Free Active Testosterone (FAT); that is a lack of testosterone present in an unbound state in blood plasma. Testosterone in vivo can be bound to sex hormone binding globulin (SHBG) and to a lesser extent, albumin. When bound the testosterone is not freely available to the body or bio-available. One of the best measures of this is the ‘Free Androgen Index’ (FAI). This is calculated by dividing the Total Testosterone (TT) by the ‘sex Hormone Binding Globulin’ (SHBG) and multiplying by a hundred to express it as a percentage. In the healthy, asymptomatic male this is normally in the range 70-100%. Symptoms of the andropause regularly appear when this drops below 50%, except in a few cases where the TT is low and the body appears to compensate by reducing SHBG levels to maintain the FAI.
FAI—Free Androgen Index (NR 70-100%)

[4] = test system: Follicle Stimulating Hormone; experiment: Follicle Stimulating Hormone (FSH) in fasting blood; assay type: in vivo, human
From the text: FSH—Follicle Stimulating Hormone in IU/l (NR 1-6)
as §2

Luteinising Hormone = Luteinising Hormone (LH) in fasting blood; assay type: in vivo, human
From the text: LH—Luteinising Hormone in IU/l (NR 0.7-6)
as §2

dihydrotestosterone = experiment: Dihydrotestosterone (DHT) in fasting blood; assay type: in vivo, human; settings: Clinical trial; treatment alone, without Danazol
From the text: as §2

Total Testosterone [5] = settings: cited from earlier work
[6] = Adverse effects / tolerability; settings: Example 2
Oestradiol = Oestradiol (E2) in fasting blood; assay type: in vivo, human
From the text: as §2

[7] = Sexual activity (intercourse per month) reported by subjects; assay type: in vivo, human; settings: Example 5, person; D1 alone, within 3 months; before: once a month
[8] = test system: Prostate Specific Antigen; experiment: PSA, biochemistry and haematology profiles during treatment; assay type: in vivo, human; settings: Example 5; D1 alone, 2 years
From the text: PSA—Total Prostate Specific Antigen in ug/l (NR<4.0)
as §2, §1

progesterone receptors = target: T1, progesterone receptors (Homo sapiens, UniProt P06401); settings: cited from earlier work
T1 sequence (P06401 1-933): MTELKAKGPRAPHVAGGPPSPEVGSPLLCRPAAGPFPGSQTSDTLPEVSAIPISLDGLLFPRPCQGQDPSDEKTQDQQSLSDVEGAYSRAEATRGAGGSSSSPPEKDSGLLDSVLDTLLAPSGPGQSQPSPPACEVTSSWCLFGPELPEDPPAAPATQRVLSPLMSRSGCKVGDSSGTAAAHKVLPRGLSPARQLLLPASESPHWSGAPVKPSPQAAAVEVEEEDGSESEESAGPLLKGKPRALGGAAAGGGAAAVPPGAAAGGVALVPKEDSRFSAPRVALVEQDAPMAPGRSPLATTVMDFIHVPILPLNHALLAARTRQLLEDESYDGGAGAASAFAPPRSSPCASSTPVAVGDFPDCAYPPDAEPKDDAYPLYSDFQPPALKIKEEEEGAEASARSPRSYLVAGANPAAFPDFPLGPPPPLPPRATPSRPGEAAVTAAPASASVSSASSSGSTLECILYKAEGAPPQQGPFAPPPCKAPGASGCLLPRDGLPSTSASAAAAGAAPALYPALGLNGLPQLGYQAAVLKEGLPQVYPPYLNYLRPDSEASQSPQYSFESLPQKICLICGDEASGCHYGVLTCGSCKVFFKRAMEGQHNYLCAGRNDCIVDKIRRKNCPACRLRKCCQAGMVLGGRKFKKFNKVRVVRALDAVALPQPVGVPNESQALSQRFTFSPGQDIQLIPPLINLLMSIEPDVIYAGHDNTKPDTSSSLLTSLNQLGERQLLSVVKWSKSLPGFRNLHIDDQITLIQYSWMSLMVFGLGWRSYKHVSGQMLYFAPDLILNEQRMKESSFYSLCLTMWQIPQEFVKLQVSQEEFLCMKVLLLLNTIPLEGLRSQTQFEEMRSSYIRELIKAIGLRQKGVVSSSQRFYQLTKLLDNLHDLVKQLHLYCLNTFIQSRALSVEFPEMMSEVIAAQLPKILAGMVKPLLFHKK

oestrogen receptors = settings: cited from earlier work
[9] = Example 1, R3 increased monthly to R4 then R6

Compound: C[C@]12CC[C@H]3[C@@H](CCC4=CC(=O)CC[C@@]43C)[C@@H]1CC[C@@H]2O [TI, testosterone]
- symptoms ([1]; Example 1, TI, 3 years after starting treatment): symptoms reappeared
- erection problems ([1]; Example 1, after change to TI): rapidly improved
- clinical response / symptoms [1]: relieved their symptoms
- TT (Total Testosterone [2]; Example 1, TI, a year later): 35.6 nmol/L
- TT (Total Testosterone [2]; Example 3, TI, after 6 months): 30.6 nmol/L
- SHBG ([3]; Example 1, TI, a year later): 74 nmol/L
- SHBG ([3]; Example 3, TI alone, successive values during the following 2 years): 82.1 nmol/L and 85 nmol/L and 54 nmol/L and 81 nmol/L
- SHBG ([3]; Example 3, TI, after 6 months): 95.3 nmol/L
- FAI (Free Androgen Index; Example 1, TI, a year later): 48%
- FAI (Free Androgen Index; Example 3, TI, after 6 months): 32%
- FSH ([4]; Example 1, TI, a year later): total suppression
- LH (Luteinising Hormone; Example 1, TI, a year later): total suppression
- DHT (dihydrotestosterone): no increase
- mean testosterone levels (Total Testosterone [5]; previous study, samples taken 3 months after implantation): 45 nmol/L
- adverse events of implant [6]: became infected on several occasions, with extrusion of pellets

Compound: CCCCCCCCCCC(=O)O[C@H]1CC[C@H]2[C@@H]3CCC4=CC(=O)CC[C@]4(C)[C@H]3CC[C@]12C [Restandol, testosterone undecanoate]
- relief of symptoms ([1]; Example 1, person, R3 increased at monthly intervals to R4 then R6): only partial relief of symptoms
- clinical response / symptoms [1]: poor clinical response
- clinical results ([1]; Example 6, further reduction of testosterone dosage to the lowest level of R2): excellent
- TT (Total Testosterone [2]; Example 1, R3 increased monthly to R4 then R6, pre-treatment 27.4): 21.4 nmol/L
- TT (Total Testosterone [2]; Example 3, person, R6, after 3 months, pre-treatment 20): 22.2 nmol/L
- Sex Hormone Binding Globulin [3]: reduction in SHBG levels on its own
- SHBG ([3]; Example 1, R3 increased monthly to R4 then R6, Restandol alone, pre-treatment 73): 47 nmol/L
- SHBG ([3]; Example 3, R6, after 3 months, pre-treatment 56.7): 112 nmol/L
- FAI (Free Androgen Index; Example 1, R3 increased monthly to R4 then R6, pre-treatment 38%): 46%
- FAI (Free Androgen Index; Example 3, R6, after 3 months, pre-treatment 35): 19.8%
- FSH [4, 9]: 8.9 IU/l
- LH (Luteinising Hormone; Example 1, R3 increased monthly to R4 then R6, pre-treatment 6.1): 6.7 IU/l
- E2 (Oestradiol; [9]): 178 pmol/L

Compound: C#C[C@]1(O)CC[C@H]2[C@@H]3CCC4=Cc5oncc5C[C@]4(C)[C@H]3CC[C@@]21C [Danazol, [1,2], oxazolo[4,5-b]17alpha-pregna-2,4-dien-20-yn-17beta-ol]
- total Andropause Check List (ACL) score ([1]; Clinical trial, FIG. 1, Danazol 100 mg alternate mornings or daily added to testosterone treatment, up to six 3-6 monthly visits): fell equally
- efficacy of testosterone treatment for hypogonadal men ([1]; Clinical trial, danazol added to three different forms of testosterone treatment, particularly where SHBG raised): greatly increased their efficacy
- clinical response ([1]; Example 5, D1 alone, for 2 years): maintained
- ACL ([1]; Example 5, D1 alone, within 3 months, pre-treatment ACL 26): 14
- sexual activity [7]: twice a week
- TT (Total Testosterone [2]; Example 5, D1 alone, within 3 months, pre-treatment 50): 48 nmol/L
- Sex Hormone Binding Globulin [3]: uniformly ended at the bottom end of it
- SHBG ([3]; Example 5, D1 alone, successive values over 2 years, listed as D1): 19 nmol/L and 23 nmol/L and 17 nmol/L
- SHBG ([3]; Example 5, D1 alone, within 3 months, pre-treatment 72): 39 nmol/L
- Free Androgen Indices (Free Androgen Index; Clinical trial, FIG. 5, Danazol added to the three testosterone treatments): markedly increased
- FAI (Free Androgen Index; Example 5, D1 alone, within 3 months, pre-treatment 69.4): 123%
- FSH ([4]; Clinical trial, FIG. 6, Danazol added to the testosterone treatment): greater reductions
- FSH ([4]; Example 5, D1 alone, within 3 months, pre-treatment 5.9): 4.5 IU/l
- LH (gonadotrophins) (Luteinising Hormone; Clinical trial, FIG. 7, Danazol added to the testosterone treatment): greater reductions
- LH (Luteinising Hormone; Example 5, D1 alone, within 3 months, pre-treatment 6.0): 2.9 IU/l
- E2 (Oestradiol; Example 5, D1 alone, within 3 months, pre-treatment 120): < 44 pmol/L
- effects on PSA, full biochemistry or haematological profile [8]: no adverse effects
- total plasma testosterone (Total Testosterone [5]; previous uses in women and men at doses of 200 to 600 mg): reduced
- affinity for progesterone receptors (progesterone receptors): low affinity
- interaction with oestrogen receptors (oestrogen receptors): does not interact with oestrogen receptors to any significant extent

Compound: C[C@H]1CC(=O)C[C@@H]2CC[C@H]3[C@@H]4CC[C@H](O)[C@@]4(C)CC[C@@H]3[C@]21C [ME, mesterolone]
- clinical response / symptoms [1]: poor clinical response
- DHT (dihydrotestosterone): trebling
